According to PubChem BioAssay AID256 (DTP/NCI, 2004):
Values joined by “and” are separate entries in the source; they are usually repeats but may differ in a detail not shown here. Equal entries are not always repeated. Toxic doses and inconclusive results are not listed. How the source made its calls: active means survival T/C of 150% or more; inactive means T/C below 125% in these data.

Tested on: CD2F1 mice, L1210 leukemia ip, survival T/C
Test: NCI In Vivo Anticancer Drug Screen. Data for tumor model L1210 Leukemia (intraperitoneal) in CD2F1 (CDF1) mice
Conditions: higher = longer survival
Method in brief: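 Compound-dosed mice with transplantable tumor versus matched vehicle controls; endpoint ratio T/C reported.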

[1] = endpoint: mean survival time, dose: 100.0 mg/kg/injection, schedule: Q04DX003 (ip), vehicle: saline
[2] = endpoint: mean survival time, dose: 200.0 mg/kg/injection, schedule: Q04DX003 (ip), vehicle: saline
[3] = endpoint: mean survival time, dose: 100.0 mg/kg/injection, schedule: Q01DX009 (ip), vehicle: saline with Tween-80
[4] = endpoint: mean survival time, dose: 200.0 mg/kg/injection, schedule: Q01DX009 (ip), vehicle: saline with Tween-80
[5] = endpoint: mean survival time, dose: 400.0 mg/kg/injection, schedule: Q01DX009 (ip), vehicle: saline with Tween-80
[6] = endpoint: mean survival time, dose: 2.5 mg/kg/injection, schedule: Q01DX009 (ip), vehicle: saline with Tween-80
[7] = endpoint: mean survival time, dose: 5.0 mg/kg/injection, schedule: Q01DX009 (ip), vehicle: saline with Tween-80
[8] = endpoint: mean survival time, dose: 100.0 mg/kg/injection, schedule: Q04DX003 (ip), vehicle: saline with Tween-80
[9] = endpoint: mean survival time, dose: 200.0 mg/kg/injection, schedule: Q04DX003 (ip), vehicle: saline with Tween-80
[10] = endpoint: mean survival time, dose: 400.0 mg/kg/injection, schedule: Q04DX003 (ip), vehicle: saline with Tween-80
[11] = endpoint: mean survival time, dose: 12.5 mg/kg/injection, schedule: Q01DX009 (ip), vehicle: Klucel (hydroxypropylcellulose) (HPC)
[12] = endpoint: mean survival time, dose: 25.0 mg/kg/injection, schedule: Q01DX009 (ip), vehicle: Klucel (hydroxypropylcellulose) (HPC)
[13] = endpoint: mean survival time, dose: 50.0 mg/kg/injection, schedule: Q01DX009 (ip), vehicle: Klucel (hydroxypropylcellulose) (HPC)
[14] = endpoint: mean survival time, dose: 100.0 mg/kg/injection, schedule: Q01DX009 (ip), vehicle: Klucel (hydroxypropylcellulose) (HPC)

Measured: T/C

O=C(/C=C\c1ccc(O)c(O)c1)OC1C(O)CC(OC(=O)/C=C/c2ccc(O)c(O)c2)(C(=O)O)CC1O (stereo unspecified)
inactive: [1] 98 % of control | [2] 96 % of control | endpoint: mean survival time, dose: 400.0 mg/kg/injection, schedule: Q04DX003 (ip), vehicle: saline 95 % of control

COc1ccc(/C=C2\OC(=O)C(Cc3cc(Cl)c4c(c3)OCO4)C2(O)C(C)C)cc1 (stereo unspecified)
inactive: endpoint: median survival time, dose: 6.13 mg/kg/injection, schedule: Q01DX005 (ip), vehicle: Klucel (hydroxypropylcellulose) (HPC) 95 % of control | endpoint: median survival time, dose: 12.25 mg/kg/injection, schedule: Q01DX005 (ip), vehicle: Klucel (hydroxypropylcellulose) (HPC) 96 % of control | endpoint: median survival time, dose: 24.5 mg/kg/injection, schedule: Q01DX005 (ip), vehicle: Klucel (hydroxypropylcellulose) (HPC) 103 % of control | endpoint: median survival time, dose: 49.0 mg/kg/injection, schedule: Q01DX005 (ip), vehicle: Klucel (hydroxypropylcellulose) (HPC) 91 % of control

N#CC(NC(=O)NCCO)c1ccccc1 (stereo unspecified)
inactive: [3] 94 % of control | [4] 96 % of control | [5] 92 % of control

CC(C)(C#N)N1CCCCC1
inactive: endpoint: mean survival time, dose: 1.25 mg/kg/injection, schedule: Q01DX009 (ip), vehicle: saline with Tween-80 107 % of control | [6] 104 % of control | [7] 98 % of control | endpoint: mean survival time, dose: 5.0 mg/kg/injection, schedule: Q04DX003 (ip), vehicle: saline 101 % of control

Nc1ccc(S(=O)(=O)Nc2ccccc2C(=O)O)cc1
inactive: endpoint: mean survival time, dose: 37.5 mg/kg/injection, schedule: Q01DX001 (ip), vehicle: saline with Tween-80 102 % of control | endpoint: mean survival time, dose: 75.0 mg/kg/injection, schedule: Q01DX001 (ip), vehicle: saline with Tween-80 101 % of control | endpoint: mean survival time, dose: 150.0 mg/kg/injection, schedule: Q01DX001 (ip), vehicle: saline with Tween-80 95 % of control

O=S(=O)(F)c1ccc(Cl)c(Cl)c1S
inactive: endpoint: mean survival time, dose: 100.0 mg/kg/injection, schedule: Q04DX002 (ip), vehicle: saline with Tween-80 98 % of control | endpoint: mean survival time, dose: 200.0 mg/kg/injection, schedule: Q04DX002 (ip), vehicle: saline with Tween-80 98 % of control

CCC12CN3CCc4c([nH]c5ccccc45)C(C(=O)OC)(c4cc5c(cc4OC)N(C)C4C(O)(C(=O)OC)C(OC(C)=O)C6(CC)C=CCN7CCC54C76)CC(C3)C1O2.CI.CO.[I][Hg][I] (stereo unspecified)
inactive: endpoint: mean survival time, dose: 100.0 mg/kg/injection, schedule: Q01DX001 (ip), vehicle: saline 100 % of control

O=c1[nH]c2ccccc2[nH]1
inactive: [8] 100 % of control | [9] 95 % of control | [10] 103 % of control

CNC(=O)OCc1c(COC(=O)NC)c(-c2ccc(Cl)c(Cl)c2)n2c1CCC2
inactive: [11] 109 % of control | [12] 110 % of control | [13] 107 % of control | [14] 105 % of control

CCCCCCCCCC1=NC(C)(C)CN1CC(C)O (stereo unspecified)
inactive: [7] 91 % of control | endpoint: mean survival time, dose: 10.0 mg/kg/injection, schedule: Q01DX009 (ip), vehicle: saline with Tween-80 102 % of control | endpoint: mean survival time, dose: 20.0 mg/kg/injection, schedule: Q01DX009 (ip), vehicle: saline with Tween-80 91 % of control

O=C(Cc1ccccc1)C(Br)C(Br)c1ccccc1 (stereo unspecified)
inactive: endpoint: mean survival time, dose: 25.0 mg/kg/injection, schedule: Q01DX009 (ip), vehicle: saline with Tween-80 107 % of control | [8] 92 % of control

CCC[CH2][Sn]([CH2]C)([CH2]C)[O]C(C)=O
inactive: [6] 104 % of control | [7] 102 % of control

O=C(N/N=C/c1ccc2c(c1)CCC2)c1cc2ccccc2cc1O
inactive: endpoint: mean survival time, dose: 100.0 mg/kg/injection, schedule: Q01DX001 (ip), vehicle: saline with Tween-80 92 % of control | [8] 95 % of control | endpoint: mean survival time, dose: 200.0 mg/kg/injection, schedule: Q01DX001 (ip), vehicle: saline with Tween-80 92 % of control | [9] 94 % of control | endpoint: mean survival time, dose: 400.0 mg/kg/injection, schedule: Q01DX001 (ip), vehicle: saline with Tween-80 87 % of control | [10] 89 % of control

CC(C)(C)c1ccc(O)cc1
inactive: [8] 94 % of control | [9] 95 % of control | [10] 88 % of control

NC1CCCCC(O)CCCC1 (stereo unspecified)
inactive: endpoint: mean survival time, dose: 12.5 mg/kg/injection, schedule: Q01DX001 (ip), vehicle: saline with Tween-80 95 % of control | endpoint: mean survival time, dose: 25.0 mg/kg/injection, schedule: Q01DX001 (ip), vehicle: saline with Tween-80 92 % of control | endpoint: mean survival time, dose: 50.0 mg/kg/injection, schedule: Q01DX001 (ip), vehicle: saline with Tween-80 97 % of control

CCN(CC)C(=O)N1CCN(c2ccccc2)CC1
inactive: [1] 98 % of control | [2] 93 % of control

O=C(OCC1OC(n2cc(C(F)(F)F)c(=O)[nH]c2=O)CC1OC(=O)c1ccc([N+](=O)[O-])cc1)c1ccc([N+](=O)[O-])cc1 (stereo unspecified)
inactive: endpoint: median survival time, dose: 25.0 mg/kg/injection, schedule: Q01DX009 (ip), vehicle: Klucel (hydroxypropylcellulose) (HPC) 116 % of control | endpoint: median survival time, dose: 50.0 mg/kg/injection, schedule: Q01DX009 (ip), vehicle: Klucel (hydroxypropylcellulose) (HPC) 113 % of control

CONC(=O)c1ccccc1N=NN(C)C
inactive: endpoint: mean survival time, dose: 18.75 mg/kg/injection, schedule: Q01DX009 (ip), vehicle: Klucel (hydroxypropylcellulose) (HPC) 117 % of control and 107 % of control | endpoint: mean survival time, dose: 37.5 mg/kg/injection, schedule: Q01DX009 (ip), vehicle: Klucel (hydroxypropylcellulose) (HPC) 117 % of control and 109 % of control | endpoint: mean survival time, dose: 75.0 mg/kg/injection, schedule: Q01DX009 (ip), vehicle: Klucel (hydroxypropylcellulose) (HPC) 101 % of control

Nc1ccc2ccc(O)cc2c1
inactive: endpoint: mean survival time, dose: 100.0 mg/kg/injection, schedule: Q01DX009 (ip), vehicle: saline 97 % of control | [1] 103 % of control | [2] 108 % of control

COc1cc2ccc(C=O)cc2cc1OC
inactive: [11] 97 % of control | [12] 94 % of control | [13] 92 % of control | [14] 86 % of control | endpoint: mean survival time, dose: 200.0 mg/kg/injection, schedule: Q01DX009 (ip), vehicle: Klucel (hydroxypropylcellulose) (HPC) 86 % of control | endpoint: mean survival time, dose: 400.0 mg/kg/injection, schedule: Q01DX009 (ip), vehicle: Klucel (hydroxypropylcellulose) (HPC) 90 % of control

c1cc2c(ncn3nnnc23)[nH]1
inactive: [12] 91 % of control | [13] 99 % of control | [14] 86 % of control

Cc1ccc(S(=O)(=O)NN=C2CCC3(CC2)c2ccccc2-c2ccccc23)cc1
inactive: endpoint: mean survival time, dose: 100.0 mg/kg/injection, schedule: Q01DX001 (ip), vehicle: Klucel (hydroxypropylcellulose) (HPC) 96 % of control | endpoint: mean survival time, dose: 200.0 mg/kg/injection, schedule: Q01DX001 (ip), vehicle: Klucel (hydroxypropylcellulose) (HPC) 96 % of control | endpoint: mean survival time, dose: 400.0 mg/kg/injection, schedule: Q01DX001 (ip), vehicle: Klucel (hydroxypropylcellulose) (HPC) 98 % of control

CC(=O)OCC1OC(n2cnc3c(NC(=O)c4ccccc4)ncnc32)C(OC(C)=O)C1OC(C)=O (stereo unspecified)
inactive: endpoint: mean survival time, dose: 12.5 mg/kg/injection, schedule: Q01DX005 (ip), vehicle: distilled water + Tween-80 93 % of control | endpoint: mean survival time, dose: 25.0 mg/kg/injection, schedule: Q01DX005 (ip), vehicle: distilled water + Tween-80 100 % of control | endpoint: mean survival time, dose: 50.0 mg/kg/injection, schedule: Q01DX005 (ip), vehicle: distilled water + Tween-80 88 % of control | endpoint: mean survival time, dose: 100.0 mg/kg/injection, schedule: Q01DX005 (ip), vehicle: distilled water + Tween-80 94 % of control

Cn1cnc([N+](=O)[O-])c1Sc1ncnc2c1ncn2C1CC(O)C(CO)O1 (stereo unspecified)
inactive: endpoint: median survival time, dose: 3.75 mg/kg/injection, schedule: Q01DX005 (ip), vehicle: saline with Tween-80 104 % of control | endpoint: median survival time, dose: 7.5 mg/kg/injection, schedule: Q01DX005 (ip), vehicle: saline with Tween-80 106 % of control | endpoint: median survival time, dose: 15.0 mg/kg/injection, schedule: Q01DX005 (ip), vehicle: saline with Tween-80 103 % of control | endpoint: median survival time, dose: 30.0 mg/kg/injection, schedule: Q01DX005 (ip), vehicle: saline with Tween-80 106 % of control | endpoint: median survival time, dose: 60.0 mg/kg/injection, schedule: Q01DX005 (ip), vehicle: saline with Tween-80 118 % of control

CC1=NC2(CCCCC2)C[N+]1(Cc1ccccc1)Cc1ccccc1
inactive: endpoint: mean survival time, dose: 25.0 mg/kg/injection, schedule: Q01DX009 (ip), vehicle: acetone 101 % of control | endpoint: mean survival time, dose: 50.0 mg/kg/injection, schedule: Q01DX009 (ip), vehicle: acetone 97 % of control

CS(=O)(=O)OCCN(CCOS(C)(=O)=O)c1ccc(C=Nc2ccc(C(=O)O)c(O)c2)cc1
inactive: endpoint: mean survival time, dose: 0.5 mg/kg/injection, schedule: Q01DX009 (ip), vehicle: saline 104 % of control | endpoint: mean survival time, dose: 1.0 mg/kg/injection, schedule: Q01DX009 (ip), vehicle: saline 101 % of control | endpoint: mean survival time, dose: 2.0 mg/kg/injection, schedule: Q01DX009 (ip), vehicle: saline 107 % of control | endpoint: mean survival time, dose: 4.0 mg/kg/injection, schedule: Q01DX009 (ip), vehicle: saline 104 % of control

Cc1ccc(C(=O)Nc2ccccc2I)cc1
inactive: [3] 97 % of control | [4] 101 % of control | [5] 97 % of control
